Bounds are passed on as bounds.

In one assay the target is T1, Human Factor D (Homo sapiens, UniProt P00746).
T1 construct: purified from human serum; purchased Complement Technology, Inc; host or cells: human serum (natural protein, not recombinant)
T1 sequence (P00746 26-253): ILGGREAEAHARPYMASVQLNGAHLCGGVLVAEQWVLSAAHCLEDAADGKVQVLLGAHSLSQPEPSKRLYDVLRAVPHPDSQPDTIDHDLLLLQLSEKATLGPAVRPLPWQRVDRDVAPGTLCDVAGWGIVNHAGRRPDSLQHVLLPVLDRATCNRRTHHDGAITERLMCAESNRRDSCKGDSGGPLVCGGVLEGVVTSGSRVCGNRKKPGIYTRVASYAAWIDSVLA
The experiment in a line: Human Factor D Assay. The class given is biochemical.
Conditions: not given
The procedure: Example 8. Human Factor D Assay
Human Factor D (purified from human serum, Complement Technology, Inc.) at 80 nM final concentration is incubated with test compound at various concentrations for 5 minutes at room temperature in 50 mM Tris, 1M NaCl, pH 7.5. A synthetic substrate Z-L-Lys-SBzl and DTNB (Ellman's reagent) are added to final concentrations of 100 μM each. Absorbance at 405 nm (A405) is recorded at 30 second intervals for 30 minutes using a microplate spectrophotometer. IC50 values are calculated by nonlinear regression of complement Factor D reaction rates as a function of test compound concentration.
By IC50 is commonly meant the midpoint of a concentration-inhibition curve. Take `CC(=O)c1cn(CC(=O)N2C[C@H](F)C[C@H]2C(=O)NCc2cccc(Cl)c2F)c2cc(OCCC3CC3)ccc12` [Cmp 5]: the IC50 is less than 1000 nM.

For `CC(=O)c1cn(CC(=O)N2C[C@H](F)C[C@H]2C(=O)Nc2cccc(Br)n2)c2ccc(OCCSCC3(C)COC3)cc12` [Cmp 5], the IC50 is less than 1000 nM.

`CC(=O)c1cn(CC(=O)N2C[C@H](F)C[C@H]2C(=O)NCc2cccc(Cl)c2F)c2cc(OCP(=O)(O)OCOC(=O)OC(C)C)ccc12` [Compound 13, (((((3-Acetyl-1-(2-((2S,4R)-2-((3-chloro-2-fluorobenzyl)carbamoyl)-4-fluoropyrrolidin-1-yl)-2-oxoethyl)-1H-indol-6-yl)oxy)methyl)(hydroxy)phosphoryl)oxy)methyl isopropyl carbonate]: the IC50 is less than 1000 nM.

The molecule `CC(=O)c1cn(CC(=O)N2C[C@H](F)C[C@H]2C(=O)NCc2cccc(Cl)c2F)c2cc(OCS(=O)(=O)NC(C)(C)C)ccc12` [Compound 15, (2S,4R)-1-(2-(3-Acetyl-6-((N-(tert-butyl)sulfamoyl)methoxy)-1H-indol-1-yl)acetyl)-N-(3-chloro-2-fluorobenzyl)-4-fluoropyrrolidine-2-carboxamide] registered an IC50 of less than 1000 nM.

`CCP(=O)(O)COc1ccc2c(C(C)=O)cn(CC(=O)N3C[C@H](F)C[C@H]3C(=O)NCc3cccc(Cl)c3F)c2c1` [Compound 16, (((3-Acetyl-1-(2-((2S,4R)-2-((3-chloro-2-fluorobenzyl)carbamoyl)-4-fluoropyrrolidin-1-yl)-2-oxoethyl)-1H-indol-6-yl)oxy)methyl)(ethyl)phosphinic Acid] returned an IC50 of less than 1000 nM.

With `CC(=O)c1cn(CC(=O)N2C[C@H](F)C[C@H]2C(=O)NCc2cccc(Cl)c2F)c2cc(OCP(=O)(OCOC(=O)C(C)(C)C)OCOC(=O)C(C)(C)C)ccc12` [Compound 21, (((((3-Acetyl-1-(2-((2S,4R)-2-((3-chloro-2-fluorobenzyl)carbamoyl)-4-fluoropyrrolidin-1-yl)-2-oxoethyl)-1H-indol-6-yl)oxy)methyl)phosphoryl)bis(oxy))bis(methylene) bis(2,2-dimethylpropanoate)], the half-maximal inhibitory concentration (IC50) was less than 1000 nM.

As to `CC(=O)c1cn(CC(=O)N2C[C@H](F)C[C@H]2C(=O)NCc2cccc(Cl)c2F)c2cc(OCP(=O)(N[C@@H](C)C(=O)OC(C)C)N[C@@H](C)C(=O)OC(C)C)ccc12` [Compound 24, (2S,2′S)-isopropyl-2,2′-(((3-acetyl-1-(2-((2S,4R)-2-(3-chloro-2-fluorobenzylcarbamoyl)-4-fluoropyrrolidin-1-yl)-2-oxoethyl)-1H-indol-6-yloxy)methyl)phosphoryl)bis(azanediyl) dipropanoate], the IC50 is less than 1000 nM.

The assay is the same for the next values; noted with them: Table 1; Human Factor D 80 nM, substrate Z-L-Lys-SBzl; read-out: IC50.
In the case of `CC(=O)c1cn(CC(=O)N2C[C@H](F)C[C@H]2C(=O)Nc2cccc(OC(F)(F)F)c2F)c2cc(OCC3CC3)ccc12` [Cmp 4], the IC50 is less than 1000 nM.

`CC(=O)c1cn(CC(=O)N2C[C@H](F)C[C@H]2C(=O)NCc2cccc(Cl)c2F)c2cc(OCC3CC3)ccc12` [Compound 1, (2S,4R)-1-(2-(3-acetyl-6-(cyclopropylmethoxy)-1H-indol-1-yl)acetyl)-N-(3-chloro-2-fluorobenzyl)-4-fluoropyrrolidine-2-carboxamide]: the IC50 is less than 1000 nM.

Take `CC(=O)c1cn(CC(=O)N2C[C@H](F)C[C@H]2C(=O)NCc2cccc(Cl)c2F)c2cc(OS(=O)(=O)C(F)(F)F)ccc12` [Compound 2, 3-acetyl-1-(2-((2S,4R)-2-(3-chloro-2-fluorobenzylcarbamoyl)-4-fluoropyrrolidin-1-yl)-2-oxoethyl)-1H-indol-6-yl trifluoromethanesulfonate]: the IC50 was less than 1000 nM.

On to `CC(=O)c1cn(CC(=O)N2[C@@H]3C[C@@H]3C[C@H]2C(=O)NCc2cccc(Cl)c2F)c2cc(OCC3CC3)ccc12` [Compound 3, (1R,3S,5R)-2-(2-(3-acetyl-6-(cyclopropylmethoxy)-1H-indol-1-yl)acetyl)-N-(3-chloro-2-fluorobenzyl)-2-azabicyclo[3.1.0]hexane-3-carboxamide], for which the IC50 was less than 1000 nM.

Turning to `CCOP(=O)(COc1ccc2c(C(C)=O)cn(CC(=O)N3C[C@H](F)C[C@H]3C(=O)NCc3cccc(Cl)c3F)c2c1)OCC` [Compound 7, Diethyl(((3-acetyl-1-(2-((2S,4R)-2-((3-chloro-2-fluorobenzyl)carbamoyl)-4-fluoropyrrolidin-1-yl)-2-oxoethyl)-1H-indol-6-yl)oxy)methyl)phosphonate], the IC50 is less than 1000 nM.

Consider `CC(=O)c1cn(CC(=O)N2C[C@H](F)C[C@H]2C(=O)NCc2cccc(Cl)c2F)c2cc(OCP(=O)(O)O)ccc12` [Compound 8, (((3-Acetyl-1-(2-((2S,4R)-2-((3-chloro-2-fluorobenzyl)carbamoyl)-4-fluoropyrrolidin-1-yl)-2-oxoethyl)-1H-indol-6-yl)oxy)methyl)phosphonic acid], for which the IC50 is less than 1000 nM.

With `CC(=O)c1cn(CC(=O)N2C[C@H](F)C[C@H]2C(=O)NCc2cccc(Cl)c2F)c2ccc(OS(=O)(=O)C(F)(F)F)cc12` [Compound 9, 3-acetyl-1-(2-((2S,4R)-2-(3-chloro-2-fluorobenzylcarbamoyl)-4-fluoropyrrolidin-1-yl)-2-oxoethyl)-1H-indol-5-yl trifluoromethanesulfonate], the IC50 was less than 1000 nM.

`CCOP(=O)(COc1ccc2c(c1)c(C(C)=O)cn2CC(=O)N1C[C@H](F)C[C@H]1C(=O)NCc1cccc(Cl)c1F)OCC` [Compound 10, Diethyl(((3-acetyl-1-(2-((2S,4R)-2-((3-chloro-2-fluorobenzyl)carbamoyl)-4-fluoropyrrolidin-1-yl)-2-oxoethyl)-1H-indol-5-yl)oxy)methyl)phosphonate]: the half-maximal inhibitory concentration (IC50) is less than 1000 nM.

As for `CC(=O)c1cn(CC(=O)N2C[C@H](F)C[C@H]2C(=O)NCc2cccc(Cl)c2F)c2ccc(OCP(=O)(O)O)cc12` [Compound 11, (((3-acetyl-1-(2-((2S,4R)-2-((3-chloro-2-fluorobenzyl)carbamoyl)-4-fluoropyrrolidin-1-yl)-2-oxoethyl)-1H-indol-5-yl)oxy)methyl)phosphonic acid], the IC50 is less than 1000 nM.

As for `CC(=O)c1cn(CC(=O)N2C[C@H](F)C[C@H]2C(=O)NCc2cccc(Cl)c2F)c2cc(OCP(=O)(OCOC(=O)OC(C)C)OCOC(=O)OC(C)C)ccc12` [Compound 12, (((3-acetyl-1-(2-((2S,4R)-2-(3-chloro-2-fluorobenzylcarbamoyl)-4-fluoropyrrolidin-1-yl)-2-oxoethyl)-1H-indol-6-yloxy)methyl)phosphoryl)bis(oxy)bis(methylene) isopropyl dicarbonate], the IC50 was less than 1000 nM.

In the case of `CCOP(=O)(CC)COc1ccc2c(C(C)=O)cn(CC(=O)N3C[C@H](F)C[C@H]3C(=O)NCc3cccc(Cl)c3F)c2c1` (stereo partly drawn) [Compound 14, Ethyl (((3-acetyl-1-(2-((2S,4R)-2-((3-chloro-2-fluorobenzyl)carbamoyl)-4-fluoropyrrolidin-1-yl)-2-oxoethyl)-1H-indol-6-yl)oxy)methyl)(ethyl)phosphinate], the IC50 is less than 1000 nM.

Take `CC(=O)c1cn(CC(=O)N2C[C@H](F)C[C@H]2C(=O)NCc2cccc(Cl)c2F)c2cc(OCS(N)(=O)=O)ccc12` [Compound 17, (2S,4R)-1-(2-(3-acetyl-6-(sulfamoylmethoxy)-1H-indol-1-yl)acetyl)-N-(3-chloro-2-fluorobenzyl)-4-fluoropyrrolidine-2-carboxamide]: the IC50 is less than 1000 nM.

Consider `CCOP(=O)(COc1ccc2c(C(C)=O)cn(CC(=O)N3C[C@H](F)C[C@H]3C(=O)N[C@H](C)c3cccc(Cl)c3F)c2c1)OCC` [Compound 18, diethyl (3-acetyl-1-(2-((2S,4R)-2-((R)-1-(3-chloro-2-fluorophenyl)ethylcarbamoyl)-4-fluoropyrrolidin-1-yl)-2-oxoethyl)-1H-indol-6-yloxy)methylphosphonate], for which the IC50 was less than 1000 nM.

For `CC(=O)c1cn(CC(=O)N2C[C@H](F)C[C@H]2C(=O)N[C@H](C)c2cccc(Cl)c2F)c2cc(OCP(=O)(O)O)ccc12` [Compound 19, (3-acetyl-1-(2-((2S,4R)-2-((R)-1-(3-chloro-2-fluorophenyl)ethylcarbamoyl)-4-fluoropyrrolidin-1-yl)-2-oxoethyl)-1H-indol-6-yloxy)methylphosphonic acid], the IC50 is less than 1000 nM.

`CCCCCCCCCCCCCCCCOCCCOP(=O)(O)COc1ccc2c(C(C)=O)cn(CC(=O)N3C[C@H](F)C[C@H]3C(=O)NCc3cccc(Cl)c3F)c2c1` [Compound 20, 3-(hexadecyloxy)propyl hydrogen (3-acetyl-1-(2-((2S,4R)-2-(3-chloro-2-fluorobenzylcarbamoyl)-4-fluoropyrrolidin-1-yl)-2-oxoethyl)-1H-indol-6-yloxy)methylphosphonate]: the IC50 is less than 1000 nM.

`CC(=O)c1cn(CC(=O)N2C[C@H](F)C[C@H]2CNS(=O)(=O)c2cccc(Cl)c2F)c2cc(OCP(=O)(O)O)ccc12` [Compound 22, (3-acetyl-1-(2-((2S,4R)-2-((3-chloro-2-fluorophenylsulfonamido)methyl)-4-fluoropyrrolidin-1-yl)-2-oxoethyl)-1H-indol-6-yloxy)methylphosphonic acid]: the IC50 is less than 1000 nM.

In the case of `CCC(=O)OC(OP(=O)(COc1ccc2c(C(C)=O)cn(CC(=O)N3C[C@H](F)C[C@H]3C(=O)NCc3cccc(Cl)c3F)c2c1)OC(OC(=O)CC)C(C)C)C(C)C` (stereo partly drawn) [Compound 23, 1,1′-(((3-acetyl-1-(2-((2S,4R)-2-(3-chloro-2-fluorobenzylcarbamoyl)-4-fluoropyrrolidin-1-yl)-2-oxoethyl)-1H-indol-6-yloxy)methyl)phosphoryl)bis(oxy)bis(2-methylpropane-1,1-diyl) dipropionate], the IC50 was less than 1000 nM.

The assay is the same for the next values; noted with them: Table 3; Human Factor D 80 nM, substrate Z-L-Lys-SBzl; read-out: (IC50 (Stars)).
Turning to `CC(=O)c1cn(CC(=O)N2C[C@H](F)C[C@H]2C(=O)Nc2cccc(Br)n2)c2ccc(OCC[S+]([O-])CC3(C)COC3)cc12` (stereo partly shown) [Cmp 4], the IC50 is less than 1000 nM.

Source of the values: patent publication US10385097B2, “Ether compounds for treatment of medical disorders” (Achillion Pharmaceuticals, Inc., priority 2015, dated 2019).
